Read-outs that look alike come from different tables or passages of the source. Marks after values point to notes of the source that are not given here.
Columns and labels:
[1] = tested on: mice subjected to stroke; experiment: Photothrombosis-induced stroke in mice, TTC-stained brain infarction size; format: in vivo, C57Bl/6 mice; settings: 24 hours
Description: Photothrombosis-induced Stroke: Photothrombosis was performed as described in Zheng et al 2010 (PloS One 5 (12): e14401). In brief, Rose Bengal is a fluorescent dye that when injected into the vasculature and excited, generates singlet oxygen that damages the endothelial wall and induces a local thrombosis (clot). Using this technique, mice were given a 0.1 mL tail-vein injection of sterilized Rose Bengal (RB, Sigma, U.S.A.) in artificial cerebral spinal fluid (aCSF). The RB concentration was 20 mg/mL. A cortical region was centered in the imaging field and illuminated with a green laser (543 nm, 5 mW) using a 0.8-NA 40× water-immersion objective (Nikon, Tokyo). The clot formation was monitored in real time until the targeted vessel or downstream capillaries were firmly occluded. Stable clots were subsequently identified by a non-fluorescent vessel segmentation ending with highly fluorescent regions. […] Treatments, MRS4322 (0.16 mg/kg; 0.5 μmol/kg) or MRS2365 (0.24 mg/kg; 0.5 μmol/kg) were introduced via intraperitoneal injections (i.p.). For experiments with A3 receptor antagonist MRS1523, mice were administered intraperitoneal injections (2 mg/kg) at the 0 and 2 hour timepoints to ensure receptor antagonism throughout the course of the study.
Animals and Photothrombosis-induced Stroke: Stroke was performed as described in Zheng et al 2010 (PloS One 5 (12): e14401). Female C57Bl/6 mice (4-6 months) were used in this study. From the methods of this manuscript: Mice were anesthetized at 3% isoflurane with 100% oxygen and subsequently maintained at 1% isoflurane through a nosecone. Depth of anesthesia was monitored and regulated according to vital signs, pinch withdrawal and eye blinks. Body temperature was maintained at 37° C. by a feedback-controlled heating pad (Gaymar T/Pump). Vital signs including oxygen saturation, respiratory rate, and heart rate were continuously monitored by using the MouseOx system (STARR Life Sciences). The hair on each mouse's head was trimmed and a small incision was made in the scalp to expose the skull. A custom-made stainless steel plate was glued to the skull with VetBond Tissue Adhesive (3M, St Paul, MN). A cranial thinned-skull imaging window was created over the right primary somatosensory cortex (˜1.5 mm posterior to Bregma and 2 mm lateral from midline) depending on the experiment. In brief, a large region of the skull was first thinned with the electric drill and then further thinned with a surgical blade. The final thickness of the thinned skull was approximately 50 μm. After the cranial imaging window was created, mice were transferred to microscope stage and used for photothrombosis or imaging experiments. For the repeat imaging experiments, the plate was carefully detached from the skull and the scalp was sutured (Ethicon 6-0 sild suture). After each experiment, the mice were either returned to cages until the next timepoint or sacrificed. All procedures were approved by the Institutional Animal Care and Use Committee (IACUC) at University of Texas Health Science Center at San Antonio. Thirty minutes following stroke or sham (uninjured), mice were treated with either vehicle (saline) or drugs (MRS4322, MRS2365, MRS5698 or Cl-IBMECA).
Post photothrombotic infarction evaluation. The size of cerebral infarcts was evaluated using 2,3,5-Triphenyltetrazolium chloride (TTC) staining as described in Zheng et al 2010 (PloS One 5 (12): e14401). In brief, RB-induced lesions in brain slices were stained with TTC. TTC is a colorless dye that stains healthy brain tissue red when reduced by the mitochondrial enzyme succinyl dehydrogenase (Bederson J B et al., 1986). The absence of staining in necrotic tissue is then used to define the area of a brain infarction. Mice were sacrificed by cervical dislocation, their brains removed and then placed in ice cold HBSS for 3 minutes. The brain was subsequently transferred to a brain mold (KOPF), sliced into 1 mm sections and immersed in 2% TTC (5 min) at 37° C. […]

[2] = Brain binding determination by brain homogenate ultrafiltration, mouse; format: in vitro ADME; settings: for fraction unbound at 60 min, 1 μM: male, CD-1, mouse, brain homogenate, pH 7.4, mouse brain homogenate
Description: (§1) Animals and Tissue Preparation: Plasma from male CD-1 mice was obtained from BioreclamationIVT (Westbury, NY) and stored at −80° C. until use. Male CD-1 mouse brains were obtained from BioreclamationIVT (Westbury, NY).
Brains were weighed and homogenized with 1:9 phosphate-buffered saline, pH 7.4 using an Omni tissue homogenizer. Brains from four mice were homogenized, pooled and mixed to form one sample.
Pooled homogenized brains were pre-warmed for 60 minutes in a humidified, 5% CO2 incubator maintained at 37° C. […] Spiked pooled brain homogenates were placed on a Nutator mixer in a humidified, 5% CO2 incubator at 37° C. for 60 minutes. After 60 minutes, three 800 μL aliquots of each sample were added to Centrifree centrifugal filters. The filters were subjected to centrifugation at 2900 rpm for 10 minutes at 37° C. Aliquots of residual brain homogenate and ultrafiltrate were collected for bioanalysis.
(§2) Plasma and brain concentrations of MRS4322 and MRS5698 in spiked plasma, brain homogenates and associated ultrafiltrates were determined by LC-MS/MS utilizing tolbutamide as an internal standard. […] The following tables outline the LC and MS/MS conditions employed (Tables 7 and 8).
(§3) For each tissue matrix, standard curves were created and LLOQ/ULOQ concentrations determined. The calibration range for the MRS4322 and MRS5698 plasma concentration standard curves was 400-1200 nM. The calibration range for MRS4322 and MRS5698 plasma ultrafiltrate standard curves was 100-1200 nM. The calibration range for MRS4322 brain homogenate and brain homogenate ultrafiltrate standard curves were 400-1200 nM and 100-1200 nM, respectively. The calibration range for MRS5698 brain homogenate and brain homogenate ultrafiltrate standard curves were 400-1200 nM and 1-500 nM, respectively.

[3] = Plasma binding determination by plasma ultrafiltration, mouse; format: in vitro ADME; settings: mouse plasma, 1 μM
Description: as §1
Plasma ultrafiltrate blank samples were prepared by thawing frozen plasma and then pre-warming plasma in a humidified 5% CO2 chamber at 37° C. for 60 minutes. Aliquots of 800 μL were transferred to Centrifree Centrifugal Filters (Ultracel regenerated cellulose (NMWL 30,000 amu) Lot R5JA31736) and centrifuged at 2900 RPM at 37° C. for 10 minutes; plasma water filtrates were collected and used in preparation of standards, blanks and QC standards.
Plasma samples were pre-warmed for 60 minutes in a humidified, 5% CO2 incubator maintained at 37° C. […] Spiked plasma samples were incubated on a rotary mixer in a humidified 5% CO2 chamber at 37° C. for a minimum of 60 minutes. After 60 minutes, three 800 μL aliquots of each sample were added to Centrifree centrifugal filters. The filters were subjected to centrifugation at 2900 rpm for 10 minutes at 37° C. Three 100 μL aliquots of residual plasma were collected along with ultrafiltrate for bioanalysis.
as §2, §3

Structure (SMILES)	size of brain infarctions in mice pretreated with A3 receptor antagonist MRS1523 ([1]; MRS1523 2 mg/kg ip at 0 and 2 hour, treatment within 30 minutes of clot formation)	fraction unbound at 60 min, 1 μM ([2]; 37° C., ultrafiltration, read-out: % Bound Mean (converted))	fraction unbound at 60 min, 1 μM ([2]; 37° C., ultrafiltration, read-out: Fraction Unbound Mean)	concentrations in the brain homogenate ultrafiltrate ([2]; mouse brain homogenate, 1 μM)	% Bound Mean ([2]; mouse brain homogenate, 1 μM, 37° C., ultrafiltration)	concentrations in the plasma ultrafiltrate [3]	size of the brain infarction (TTC staining) ([1]; photothrombotic stroke mice, 100 ul of 100 uM ip within 30 minutes of clot formation, vs vehicle)
CNC(=O)[C@@]12C[C@@H]1[C@@H](n1cnc3c(NCc4cccc(Cl)c4)nc(C#Cc4ccc(F)c(F)c4)nc31)[C@H](O)[C@@H]2O [MRS5698]	not reduced	0.0001	< 0.000122	not detected	>99.99* %	not detected	
Nc1nc(Cl)nc2c1ncn2[C@H]1[C@H](O)[C@H](O)[C@]2(CO)C[C@H]12 [MRS1873]							significantly reduced

Reference: patent US12239654B2, “Compounds and methods for treating neurological and cardiovascular conditions” (Astrocyte Pharmaceuticals, Inc., priority 2016, dated 2025)
